Assay results published in patent US12636319B2, “Pharmaceutical composition for preventing or treating atopic disease containing Akkermansia muciniphila strain” (ENTEROBIOME INC., priority 2020, dated 2026).
≈ marks a conversion by molar mass, not a printed value.

What was measured:
[1] = test system: Akkermansia muciniphila EB-AMDK19; assay: MIC by CLSI broth microdilution, isolated strain; assay type: cell-based; details: EBAMDK19, test strain EB-AMDK19
[2] = test system: Akkermansia muciniphila ATCC BAA-835; assay: MIC by CLSI broth microdilution, type strain; assay type: cell-based; details: ATCCBAA835, test strain ATCC BAA-835
[3] = test system: Bacteroides thetiotaomicron ATCC 29741; assay: MIC by CLSI broth microdilution, QC strain; assay type: cell-based
[4] = test system: Th2/Th1 cytokines; assay: Ratio of Th2/Th1 serum cytokines; assay type: in vivo, mouse; details: compared to the atopic dermatitis-induced group
Method: (§1) The Akkermansia muciniphila ATCC BAA-835 strain and Akkermansia muciniphila EB-AMDK19 live bacteria used in this experiment were prepared at a concentration of 1×10^8 CFU/150 μl PBS (25% glycerol, 0.05% cysteine/PBS).
To observe atopic dermatitis lesions, 6-week-old NC/Nga mice (weighed about 21 to 25 g, SLC, Inc., Japan) were purchased from Daehan Biolink Co., Ltd. (Chungbuk, Korea). Animal tests were carried out in accordance with the Animal use and Care Protocol of the Institutional Animal Care and Use Committee (IACUC). The animals were acclimated for one week, and then raised for 9 weeks at a constant temperature of 22° C. and a relative humidity of 50 to 60% with a 12-hr light/12-hr dark cycle. […]
At the end of the experiment, the mice were anesthetized with CO2, and blood was collected by cardiac puncture. […] The concentrations of IL-4, IL-12, IFN-γ and IL-6 cytokines were measured using an ELISA kit (Invitrogen, CA, USA), and the results of the measurement are shown in FIGS. 17(A), 17(B), 18(A), and 18(B).
From an immunological point of view, atopic dermatitis is a disease caused by an excessive imbalance between Th1 and Th2 immune responses. Thus, the cytokine concentrations measured as described above were expressed as the ratio of Th2/Th1 cytokines, and the results are shown in FIGS. 19(A), 19(B), 20(A), and 20(B).

[5] = test system: DNCB-induced atopic dermatitis in NC/Nga mice; assay: Ear edema (ear thickness) in DNCB-induced atopic dermatitis; assay type: in vivo, mouse; details: at 6 weeks; normal group 0.55 mm, atopic dermatitis-induced group 1.50 mm
Method: as §1
(§2) To observe atopic dermatitis lesions, 6-week-old NC/Nga mice (weighed about 21 to 25 g, SLC, Inc., Japan) were purchased from Daehan Biolink Co., Ltd. (Chungbuk, Korea). Animal tests were carried out in accordance with the Animal use and Care Protocol of the Institutional Animal Care and Use Committee (IACUC). The animals were acclimated for one week, and then raised for 9 weeks at a constant temperature of 22° C. and a relative humidity of 50 to 60% with a 12-hr light/12-hr dark cycle.
(§3) The backs of 6-week-old NC/Nga mice were shaved clean, and then left to stand for 24 hours so that fine wounds of the skin were healed. 1% 2,4-dinitrochlorobenzene (DNCB) solution (Sigma-Aldrich Korea) was applied to the back of each mouse twice a week for 3 weeks to induce an immune response, and then 0.5% DNCB solution was applied twice a week to induce contact dermatitis. […]
After severe atopic dermatitis was induced, the mice after completion of the experiment were sacrificed by anesthetizing with CO2, and then the degree of edema of both ears was measured by the velocity transformation technique using a thickness gauge (Digimatic thickness gauge, 547-301, Mitutoyo, Japan).

[6] = test system: DNCB-induced atopic dermatitis in NC/Nga mice; assay: Spleen weight in DNCB-induced atopic dermatitis; assay type: in vivo, mouse; details: end of experiment; compared to the atopic dermatitis-induced group
Method: as §1, §2
(§4) The backs of 6-week-old NC/Nga mice were shaved clean, and then left to stand for 24 hours so that fine wounds of the skin were healed. […]
Thus, the weight of the spleen was measured to observe the effect of the composition for preventing atopic dermatitis on the immune organs of NC/Nga mice with atopic dermatitis induced by DNCB. […] The collected spleen tissues were washed with physiological saline, and then the sizes thereof were visually observed and the weights thereof were measured using a microbalance.

[7] = test system: IgE; assay: Serum IgE concentration by ELISA; assay type: in vivo, mouse
Method: as §1, §2, §3
At the end of the experiment, each of the mice was anesthetized with CO2 and blood was collected by cardiac puncture. The collected blood was centrifuged at 10,000 rpm for 5 minutes to separate the serum, and the serum IgE concentration was measured. […]

[8] = test system: DNCB-induced atopic dermatitis in NC/Nga mice; assay: Scratching frequency in DNCB-induced atopic dermatitis; assay type: in vivo, mouse; details: scratching for 10 minutes, day before end; compared to the atopic dermatitis-induced group
Method: as §1, §2, §3
The day before the end of the experiment, the frequency of scratching the affected area due to itching was measured. For measurement of the frequency of scratching, each mouse was acclimated for 10 minutes, and then the frequency of scratching for 10 minutes was measured using a counter.

[9] = test system: DNCB-induced atopic dermatitis in NC/Nga mice; assay: Dermatitis score (modified SCORAD) in DNCB-induced atopic dermatitis; assay type: in vivo, mouse; details: week 6, compared to the atopic dermatitis-induced group; oral daily
Method: as §1, §2, §4
After atopic dermatitis was induced by DNCB, treatment was performed by administering a preparation containing each of dexamethasone (DEX), the ATCC BAA-835 strain and the EB-AMDK19 strain for 6 weeks. […] Skin dryness, edema, erythema/hemorrhage, and erosion/excoriation were scored as follows: no symptoms=0, weak symptoms=1, moderate symptoms=2, and severe symptoms=3.

Row | Compound | MIC [1] [µg/mL] | MIC [2] [µg/mL] | MIC ([3]; Bacteroides, ATCC29741) [µg/mL] | other results
1 | O=C(N[C@H](CO)[C@H](O)c1ccc([N+](=O)[O-])cc1)C(Cl)Cl [CHL, chloramphenicol] | 4 (≈ 12.4 µM) | 4 (≈ 12.4 µM) | 8 (≈ 24.8 µM) | –
2 | CCC[C@@H]1C[C@@H](C(=O)N[C@@H]([C@H]2O[C@H](SC)[C@H](O)[C@@H](O)[C@H]2O)[C@H](C)Cl)N(C)C1 [CLI, clindamycin] | 4 (≈ 9.41 µM) | ≤ 0.125 | – | –
3 | CO/N=C(\C(=O)N[C@@H]1C(=O)N2C(C(=O)O)=CCS[C@H]12)c1csc(N)n1 [CTZ, ceftizoxime] | 1 (≈ 2.61 µM) | 2 (≈ 5.22 µM) | 16 (≈ 41.7 µM) | –
4 | C[C@@H]1C[C@H]2[C@@H]3CCC4=CC(=O)C=C[C@]4(C)[C@@]3(F)[C@@H](O)C[C@]2(C)[C@@]1(O)C(=O)CO [DEX, dexamethasone] | – | – | – | decrease of IL-6/IFN-γ ratio [4]: 12.7%; decrease of IL-6/IL-12 ratio [4]: 34.5%; ear edema [5]: 1.00 mm; decrease in spleen weight [6]: 23.3%; serum IgE decrease ([7]; compared to the atopic dermatitis-induced group): 40.70%; serum IgE concentration ([7]; end of experiment, ELISA): 11891.34 ng/mL; decrease in scratching frequency [8]: about 59.4%; decrease in dermatitis score [9]: 38.4%
5 | C[C@@H](O)[C@H]1C(=O)N2C(C(=O)O)=C(S[C@@H]3CN[C@H](C(=O)N(C)C)C3)[C@H](C)[C@H]12 [MEM, meropenem] | 0.5 (≈ 1.3 µM) | 1 (≈ 2.61 µM) | 0.5 (≈ 1.3 µM) | –
6 | Cc1ncc([N+](=O)[O-])n1CCO [MTZ, metronidazole] | 0.5 (≈ 2.92 µM) | ≤ 0.25 | 2 (≈ 11.7 µM) | –
7 | COc1c(N2C[C@@H]3CCCN[C@@H]3C2)c(F)cc2c(=O)c(C(=O)O)cn(C3CC3)c12 [MXF, moxifloxacin] | > 32 | > 32 | 8 (≈ 19.9 µM) | –
8 | Piperacillin-tazobactam [PTZ] | – | – | – | MIC ([3]; QC strain ATCC 29741, broth microdilution, CLSI): 8/4
